# In patent US8710233B2 (Gruenenthal GmbH, priority 2005, dated 2014):
# Where two headings read alike, the source gives them in different places.
# Columns and labels:
# [1] = biological target: T1, vanilloid receptor 1 (VR1/TRPV1) of the rat species (Rattus norvegicus, UniProt O35433); test: FLIPR Ca2+ influx assay on rat dorsal root ganglia cells (pharmacological method I); type: cell-based
# T1 construct: The spinal column is removed from decapitated rats; from tissue; host or cells: primary cells dissociated from rat dorsal root ganglia
# T1 sequence (O35433 whole entry): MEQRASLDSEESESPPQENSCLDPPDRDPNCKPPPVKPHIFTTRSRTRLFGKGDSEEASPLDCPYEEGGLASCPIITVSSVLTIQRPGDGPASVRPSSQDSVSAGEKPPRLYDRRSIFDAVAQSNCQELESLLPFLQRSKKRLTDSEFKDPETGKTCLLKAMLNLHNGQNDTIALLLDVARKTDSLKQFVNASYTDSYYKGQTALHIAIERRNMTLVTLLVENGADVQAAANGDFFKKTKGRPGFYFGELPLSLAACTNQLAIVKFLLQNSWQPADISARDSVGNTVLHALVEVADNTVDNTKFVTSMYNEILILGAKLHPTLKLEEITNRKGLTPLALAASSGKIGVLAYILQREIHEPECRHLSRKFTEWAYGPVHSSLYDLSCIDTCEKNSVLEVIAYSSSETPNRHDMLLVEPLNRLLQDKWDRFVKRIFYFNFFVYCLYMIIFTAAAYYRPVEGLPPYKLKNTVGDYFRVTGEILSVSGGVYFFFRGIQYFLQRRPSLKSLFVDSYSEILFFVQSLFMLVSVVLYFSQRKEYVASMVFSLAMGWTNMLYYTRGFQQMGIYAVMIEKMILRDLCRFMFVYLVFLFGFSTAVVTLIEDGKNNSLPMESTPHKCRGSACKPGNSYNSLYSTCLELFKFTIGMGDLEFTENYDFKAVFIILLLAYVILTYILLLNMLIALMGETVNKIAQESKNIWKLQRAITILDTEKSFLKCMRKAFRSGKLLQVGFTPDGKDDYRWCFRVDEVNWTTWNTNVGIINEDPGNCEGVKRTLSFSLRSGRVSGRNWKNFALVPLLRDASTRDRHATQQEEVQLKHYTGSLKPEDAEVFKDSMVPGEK
# Method in brief: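 Primary rat dorsal root ganglion cells loaded with 2 μM Fluo-4, Ca2+ influx read on FLIPR as peak fluorescence. Triplicates, at least 3 independent experiments.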
# [2] = test system: capsaicin induced hypothermie; test: Hypothermie assay in the mouse (capsaicin induced hypothermie); type: in vivo; settings: mouse, read-out: inhibition hypothermie (n = 5); for inhibition in vivo at 0.3 mg/kg: 0.3 mg/kg body weight po; for inhibition in vivo at 1 mg/kg: 1 mg/kg body weight po; for inhibition in vivo at 0.1 mg/kg: 0.1 mg/kg body weight po
# Experimental: V. Hypothermie Assay an der Maus
# Male NMRI mice (weight 25-35 gram, supplier IFFA CREDO, Bruxelles, Belgium) are used in the hypothermie assay. The animals are kept under standardized conditions: light/darkness interval (6:00 to 18:00 light; 18:00 to 6:00 Uhr darkness), room temperature 19-22° C., relative humidity 35-70%, 15 times per hour change of compartment air, airflow <0.2 m/sec. The animals were fed on a standardized diet (ssniff diet, ssniff Spezialdiäten GmbH, Soest, Germany) and tap water. Water and diet were detracted during the experiment. All animals were used once in the experiment. The animals were allowed to adapt to the experimental conditions for at least 5 days.
# The acute application of capsaicin (VR-1 agonist) leads to a decrease of the core body temperature in rat and mice via stimulation of heat sensors. Only compounds which act as specific VR-1-receptor antagonists can antagonize the capsaicin induced hypothermie. In contrast, morphine induced hypothermie is not antagonized by VR-1 antagonists. Thus, this experiment is suitable for the determination of compounds that act as VR1-antagonists via their effect on the core body temperature.
# For the determination of the core body temperature a digital thermometer was used (Thermalert TH-5, physitemp, Clifton N.J., USA). The measuring head was inserted into the rectum.
# The individual basis value is determined by measuring the body temperature twice in an interval of about half an hour. […] […] The test compound is given 10 min (i.v.) or 15 min (p.o.), respectively, before application of capsaicin. The body temperature is determined 7.5/15 and 30 min after application of capsaicin (i.v.+i.p.) or 15/30/60/90/120 min after application of capsaicin (p.o.+i.p.), respectively. In addition, another group of mice is only given the test compound or a vehicle control.
# The measuring points are given as average values±S.E.M. of the absolute values. The antagonistic effect is given in percent of inhibition of capsaicin induced hypothermie.
# [3] = biological target: VR1/TRPV1 receptor (Homo sapiens, UniProt Q8NER1); test: IC50 (human) after pH stimulus; type: cell-based; settings: for inhibition at 1 µM: ne = no effect
# Chain of VR1/TRPV1 receptor (Q8NER1 whole entry): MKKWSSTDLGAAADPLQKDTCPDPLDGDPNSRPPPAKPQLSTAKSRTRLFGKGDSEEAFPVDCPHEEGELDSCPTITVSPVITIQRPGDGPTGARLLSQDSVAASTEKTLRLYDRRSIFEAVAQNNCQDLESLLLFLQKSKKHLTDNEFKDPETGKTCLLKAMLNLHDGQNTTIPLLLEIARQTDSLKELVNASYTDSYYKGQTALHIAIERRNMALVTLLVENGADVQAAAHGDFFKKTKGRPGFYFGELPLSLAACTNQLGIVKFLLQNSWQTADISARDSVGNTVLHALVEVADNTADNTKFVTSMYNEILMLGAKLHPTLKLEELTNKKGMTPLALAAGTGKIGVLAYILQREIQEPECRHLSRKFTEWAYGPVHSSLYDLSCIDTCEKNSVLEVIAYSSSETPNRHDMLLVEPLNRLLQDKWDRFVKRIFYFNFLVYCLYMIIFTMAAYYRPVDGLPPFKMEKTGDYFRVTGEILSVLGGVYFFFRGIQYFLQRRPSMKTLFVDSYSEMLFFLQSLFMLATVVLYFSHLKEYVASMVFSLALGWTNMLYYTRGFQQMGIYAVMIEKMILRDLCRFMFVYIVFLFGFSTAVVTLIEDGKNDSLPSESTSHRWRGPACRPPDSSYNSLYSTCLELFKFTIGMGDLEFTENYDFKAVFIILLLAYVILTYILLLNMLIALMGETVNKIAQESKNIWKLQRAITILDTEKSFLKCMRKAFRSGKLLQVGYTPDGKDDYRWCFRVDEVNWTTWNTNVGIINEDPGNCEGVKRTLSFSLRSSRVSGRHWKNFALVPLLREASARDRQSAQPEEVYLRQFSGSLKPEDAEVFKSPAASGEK
# [4] = biological target: T2, vanilloid receptor (VR1) (Homo sapiens, UniProt Q8NER1); test: FLIPR Ca2+ influx assay on CHO K1 cells transfected with the VR1 gene (pharmacological method II); type: cell-based
# T2 construct: expressed in transfected cells; host or cells: CHO K1 cells (ECACC), stably transfected
# T2 sequence (Q8NER1 whole entry): as above
# [5] = table 4, capsaicin, read-out: Ki (rat) Cap.
# [6] = table 4, capsaicin, read-out: Ki (human) Cap.
# [7] = read-out: inhibition in percent, IC50 (human) after pH stimulus
# [8] = Ki (rat) Cap., table 4, capsaicin
# [9] = Table 2, displacement of capsaicin (100 nM), Cheng-Prusoff, read-out: Ki (rat)
# [10] = Table 2, displacement of capsaicin (100 nM), Cheng-Prusoff, read-out: Ki (human)
"Ki [1, 5]",IC50 ([3]; table 4),"Ki [4, 6]",Structure (SMILES),also measured
2.4 nM,,,"CC(C(=O)NCc1ccc(C(F)(F)F)nc1N1CCCCCC1)c1ccc(NS(C)(=O)=O)c(F)c1 (stereo not shown) [Example 81, N-(2-azepan-1-yl-6-trifluoromethyl-pyridin-3-ylmethyl)-2-(3-fluoro-4-methylsulfonamido-phenyl)-propionamide]",inhibition in vivo at 0.3 mg/kg [2]: 21%
,,,"CCCCCCOc1nc(C(F)(F)F)ccc1CNC(=O)[C@H](C)c1ccc(NS(C)(=O)=O)c(F)c1 [Example 94, (R)-2-(3-fluoro-4-methylsulfonamido-phenyl)-N-(2-hexyloxy-6-trifluoromethyl-pyridin-3-ylmethyl)-propionamide]",inhibition in vivo at 0.3 mg/kg [2]: 0%
1.9 nM,,,CC(C(=O)NCc1ccc(C(F)(F)F)nc1N1CCC(c2ccccc2)CC1)c1ccc(NS(C)(=O)=O)c(F)c1 (stereo not shown) [Example 137],inhibition in vivo at 0.3 mg/kg [2]: 9%
,,,CC(C(=O)NCc1ccc(C(F)(F)F)nc1N1CCC(Nc2ccccc2)CC1)c1ccc(NS(C)(=O)=O)c(F)c1 (stereo not shown) [Compound 290],inhibition in vivo at 0.3 mg/kg [2]: 78%; inhibition in vivo at 1 mg/kg [2]: 68%
,480 nM,4.4 nM,"CC(C(=O)NCc1ccc(C(F)(F)F)nc1N1CCC(Nc2ccccc2)CC1)c1ccc(NS(C)(=O)=O)c(F)c1 (stereo not shown) [Example 290, 2-(3-fluoro-4-methylsulfonamido-phenyl)-N-(4-phenylamino-6′-trifluoromethyl-3,4,5,6-tetrahydro-2H-[1,2′]bipyridinyl-3′-ylmethyl)-propionamide]",inhibition in vivo at 0.1 mg/kg [2]: 24%
,18.6 nM,0.5 nM,"CC(C(=O)NCc1ccc(C(F)(F)F)nc1OCc1ccccc1)c1ccc(NS(C)(=O)=O)c(F)c1 (stereo not shown) [Example 106, N-(2-benzyloxy-6-trifluoromethyl-pyridin-3-ylmethyl)-2-(3-fluoro-4-methylsulfonamido-phenyl)-propionamide]",inhibition in vivo at 0.1 mg/kg [2]: 24%
,,,CC(C(=O)NCc1ccc(C(F)(F)F)nc1OCc1ccccc1)c1ccc(NS(C)(=O)=O)c(F)c1 (stereo not shown) [Compound 106],inhibition in vivo at 0.3 mg/kg [2]: 21%; inhibition in vivo at 1 mg/kg [2]: 22%; inhibition in vivo at 10 mg/kg ([2]; 10 mg/kg body weight po): 84%
,,6.4 nM,"CC(C(=O)NCc1ccc(C(F)(F)F)nc1Oc1ccccc1)c1ccc(NS(C)(=O)=O)c(F)c1 (stereo not shown) [Example 198, 2-(3-fluoro-4-methylsulfonamido-phenyl)-N-(2-phenoxy-6-trifluoromethyl-pyridin-3-ylmethyl)-propionamide]","inhibition at 0.1 µM [3, 7]: 11%; inhibition at 1 µM [3, 7]: 31%; Ki [1, 8]: 0.9 nM"
,44.4 nM,1 nM,"CC1CCC(COc2nc(C(F)(F)F)ccc2CNC(=O)C(C)c2ccc(NS(C)(=O)=O)c(F)c2)CC1 (stereo not shown) [Example 271, 2-(3-fluoro-4-methylsulfonamido-phenyl)-N-[2-(4-methyl-cyclohexylmethoxy)-6-trifluoromethyl-pyridin-3-ylmethyl]-propionamide]","Ki [1, 8]: 1.1 nM"
12.6 nM,139 nM,4 nM,"CC(=O)OC1CCN(c2nc(C(F)(F)F)ccc2CNC(=O)C(C)c2ccc(NS(C)(=O)=O)c(F)c2)CC1 (stereo not shown) [Example 158, acetic acid 3′-{[2-(3-fluoro-4-methylsulfonamido-phenyl)-propionylamino]-methyl}-6′-trifluoromethyl-3,4,5,6-tetrahydro-2H-[1,2′]bipyridinyl-4-yl ester]",
1 nM,27.8 nM,0.7 nM,"CC(C(=O)NCc1ccc(C(F)(F)F)nc1N1CCCCCCC1)c1ccc(NS(C)(=O)=O)c(F)c1 (stereo not shown) [Example 128, N-(2-azocan-1-yl-6-trifluoromethyl-pyridin-3-ylmethyl)-2-(3-fluoro-4-methylsulfonamido-phenyl)-propionamide]",
,,,"CC(C(=O)NCc1ccc(C(F)(F)F)nc1N1CCOCC1)c1ccc(NS(C)(=O)=O)c(F)c1 (stereo not shown) [Example 12, 2-(3-fluoro-4-(methylsulfonamido)phenyl)-N-((2-morpholino-6-(trifluoromethyl)pyridin-3-yl)methyl)propanamide]","IC50 ([3]; Table 2): 169 nM; Ki [1, 9]: 4.3 nM; Ki [4, 10]: 1.3 nM"
1.7 nM,,1.2 nM,"CC1CCN(c2nc(C(F)(F)F)ccc2CNC(=O)C(C)c2ccc(NS(C)(=O)=O)cc2)CC1 (stereo not shown) [Example 262, 2-(4-methylsulfonamido-phenyl)-N-(4-methyl-6′-trifluoromethyl-3,4,5,6-tetrahydro-2H-[1,2′]bipyridinyl-3′-ylmethyl)-propionamide]","inhibition at 0.1 µM [3, 7]: 6%; inhibition at 1 µM [3, 7]: 58%"
0.4 nM,61 nM,1.1 nM,"Cc1cc(C(C)C(=O)NCc2ccc(C(F)(F)F)nc2N2CCC(C(F)(F)F)CC2)ccc1NS(C)(=O)=O (stereo not shown) [Example 195, N-(4,6′-bis-trifluoromethyl-3,4,5,6-tetrahydro-2H-[1,2′]bipyridinyl-3′-ylmethyl)-2-(4-methylsulfonamido-3-methyl-phenyl)-propionamide]",
,,,"CC(C(=O)NCc1ccc(C(F)(F)F)nc1OC1CCCC1)c1ccc(NS(C)(=O)=O)c(F)c1 (stereo not shown) [Example 21, N-((2-cyclopentyloxy-6-(trifluoromethyl)pyridin-3-yl)methyl)-2-(3-fluoro-4-(methylsulfonamido)phenyl)propanamide]","IC50 ([3]; Table 2): 29 nM; Ki [1, 9]: 1.3 nM; Ki [4, 10]: 0.9 nM"
,19.7 nM,0.7 nM,"CC(C(=O)NCc1ccc(C(F)(F)F)nc1OCC1CCCCC1)c1ccc(NS(C)(=O)=O)c(F)c1 (stereo not shown) [Example 270, N-(2-cyclohexylmethoxy-6-trifluoromethyl-pyridin-3-ylmethyl)-2-(3-fluoro-4-methylsulfonamido-phenyl)-propionamide]","Ki [1, 8]: 0.5 nM"
1.2 nM,8.9 nM,1 nM,"CCCCCc1nc(C(F)(F)F)ccc1CNC(=O)C(C)c1ccc(NS(C)(=O)=O)c(F)c1 (stereo not shown) [Example 142, 2-(3-fluoro-4-methylsulfonamido-phenyl)-N-(2-pentyl-6-trifluoromethyl-pyridin-3-ylmethyl)-propionamide]",
1.4 nM,,2.7 nM,"CCCCCCOc1nc(C(C)(C)C)ccc1CNC(=O)C(C)c1ccc(NS(C)(=O)=O)c(F)c1 (stereo not shown) [Example 236, N-(6-tert-butyl-2-hexyloxy-pyridin-3-ylmethyl)-2-(3-fluoro-4-methylsulfonamido-phenyl)-propionamide]","inhibition at 1 µM [3, 7]: 76%; inhibition at 10 µM ([3]; @ 10 μM, read-out: inhibition in percent, IC50 (human) after pH stimulus): 69%"
0.8 nM,38.6 nM,0.8 nM,CC(C(=O)NCc1ccc(C(F)(F)Cl)nc1N1CCN(c2ccccc2)CC1)c1ccc(NS(C)(=O)=O)c(F)c1 (stereo not shown) [Example 207],
,,,"CC(C(=O)NCc1ccc(C(F)(F)F)nc1-c1ccccc1)c1ccc(NS(C)(=O)=O)c(F)c1 (stereo not shown) [Example 22, 2-(3-fluoro-4-(methylsulfonamido)phenyl)-N-((2-phenyl-6-(trifluoromethyl)pyridin-3-yl)methyl)propanamide]","IC50 ([3]; Table 2): 62 nM; Ki [1, 9]: 4.9 nM; Ki [4, 10]: 6.4 nM"
1.2 nM,34 nM,2.4 nM,"CC(C(=O)NCc1ccc(C(F)(F)F)nc1N1CCN(c2ccccc2F)CC1)c1ccc(NS(C)(=O)=O)c(F)c1 (stereo not shown) [Example 201, 2-(3-fluoro-4-methylsulfonamido-phenyl)-N-{2-[4-(2-fluoro-phenyl)-piperazin-1-yl]-6-trifluoromethyl-pyridin-3-ylmethyl}-propionamide]",

Structure (SMILES),"Ki [1, 5]",IC50 ([3]; table 4),"Ki [4, 6]",also measured
"CC(C)COc1cc(C(F)(F)F)ccc1CNC(=O)[C@H](C)c1ccc(NS(C)(=O)=O)c(F)c1 [Example 99, (R)-2-(3-fluoro-4-methylsulfonamido-phenyl)-N-(2-isobutoxy-4-trifluoromethyl-benzyl)-propionamide]",,419 nM,5.8 nM,inhibition in vivo at 0.3 mg/kg [2]: 1%
"CCCCOc1nc(C(F)(F)F)ccc1CNC(=O)C(C)c1ccc(NS(C)(=O)=O)c(C)c1 (stereo not shown) [Example 256, N-(2-butoxy-6-trifluoromethyl-pyridin-3-ylmethyl)-2-(4-methylsulfonamido-3-methyl-phenyl)-propionamide]",0.3 nM,,0.6 nM,"inhibition at 1 µM [3, 7]: 59%"
